Laboratory results taken from patent US11684594B2, “Antifungal prophylaxis for cornea” (PRESIDENT AND FELLOWS OF HARVARD COLLEGE, priority 2020, dated 2023).
“Also recorded” adds a separate entry of the source. Like-named read-outs stand apart in the source and are kept apart here.

Assays:
[1] = test system: F. solani (ATCC MYA-3636); assay: In vitro time kill test, filamentous fungi; format: cell-based, Fusarium solani
Method: (§1) In Vitro Time Kill Tests. Microtiter time kill tests were carried out in vitro according to the published CLSI methods (M27-A2).^22
(§2) ii) Filamentous fungi: The antibiotic solutions, at either full or 1/10 strength, and antiseptics were inoculated with approximately 2×10^5-2×10^6 conidia/mL of F. solani or A. fumigatus in RPMI broth (buffered with MOPS at pH 7.0; Mediatech; Manassas, Va.) for 0-15 min. Conidia were collected by flooding the agar plates with 10 mL of sterile 1×PBS and 0.1% Tween® 20 (Sigma Aldrich; St Louis, Mo.). The solution was transferred to a sterile conical tube, and particles were allowed to settle for 10 min. The resulting supernatant was transferred to a new sterile conical tube and centrifuged at 3,000×g for 5 min. The supernatant was discarded, the remaining pellet was re-suspended in RPMI broth (buffered with MOPS at pH 7.0), and the OD600 was adjusted to 1.0. In the final test solutions, at each time point the inoculum was diluted 1:10 and neutralized in Dey-Engley neutralizing broth (Sigma-Aldrich; St Louis, Mo.). Neutralized cultures were then serially diluted and plated on Sabouraud dextrose agar (two serial 1:10 dilutions, 0.1 mL each) in technical duplicate. Viable conidia were counted and recorded following aerobic incubation for 48 hrs (or as soon as growth was visible) at 25-35° C.
(§3) To investigate the fungicidal activity of various antibiotics and antimicrobials, the reduction in fungal load after short contact times (0-15 min, FIGS. 2-3), to account for the effect of rapid dilution by the tear film, as occurs in patients after topical instillation, was measured.^23 The detection limit for time kill tests was approximately 100 CFU/mL for C. albicans, and 1 CFU/mL for F. solani and A. fumigatus (corresponding to a ≥3 log difference from the starting inoculum). 20-300 cells were considered a reliable counting range per dilution, and values were averaged when more than one dilution in the same plate were within this range.

[2] = test system: Candida albicans (ATCC 24433), Fusarium solani (ATCC MYA-3636), and Aspergillus fumigatus (ATCC MYA-3626); assay: In vitro antifungal testing, statements not resolved by species; format: cell-based; conditions: species not resolved; for Antifungal / fungicidal activity in vitro: agents at eye-drop or stated concentration; for Efficacy/toxicity ratio, overall rank: fungicidal activity vs HCLE cytotoxicity
Method: Several commonly used antibiotics were tested in vitro against Candida albicans (ATCC 24433), Fusarium solani (ATCC MYA-3636), and Aspergillus fumigatus (ATCC MYA-3626). Time kill activity and minimum inhibitory concentrations (MIC) were determined. Also the antiseptics benzalkonium chloride (BAK), povidone-iodine (PI), and ionic liquids (ILs) consisting of a 1:1 mixture of choline and undecanoic acid, were tested. Toxicity was assayed in vitro on cultures of human corneal epithelial cells, subjected to Trypan Blue staining. Adhesion and tissue invasion experiments were also carried out, with or without γ-irradiation, and by analysis with fluorescent microscopy.
as §1

[3] = test system: human corneal-limbal epithelial cells (HCLE); format: cell-based; conditions: for Trypan Blue staining (% stained area per image) compared to control treatment TX-100 (1%): FIG. 2A, confluent HCLE monolayers, 1 min of contact, BAK 40 µg/mL, PI 0.5%, #3-IL 10 mM; for Cytotoxicity / toxicity: HCLE cells, post-exposure Trypan blue staining
Method: In Vitro Toxicity Tests. Trypan Blue assays for toxicity of various antimicrobial agents were conducted using human corneal cells. Telomerase-immortalized human corneal-limbal epithelial cells (HCLE) were thawed at 37° C. and quickly transferred to a sterile T75 cell culture flask. Cells were grown in keratinocyte serum-free medium (KSFM; Gibco™; Thermofisher Scientific; Waltham, Mass.) supplemented with bovine pituitary extract (25 μg/mL), epidermal growth factor (0.2 ng/mL), calcium chloride (0.4 mM CaCl2[…]2H2O; Sigma-Aldrich; St Louis, Mo.), and 1× penicillin/streptomycin, at 37° C. with 5% CO2. Once cells were confluent, they were passaged following trypsinization in 12- or 24-well plates. After incubation with Trypsin-EDTA (0.05%, Gibco™; Thermofisher Scientific; Waltham, Mass.) for 5-10 min at 37° C. with 5% CO2, the reaction was stopped with an equivalent volume of neutralizing medium (Dulbecco's Modified Eagle Medium/Nutrient Mixture F-12, DMEM/F-12, with HEPES and 10% newborn calf serum), centrifuged at 5,000×g for 5 min, and re-suspended in supplemented KSFM. Experiments were performed using cells from passages 31 to 36. Once cells reached confluency, they were gently washed twice with DMEM/F-12 (Gibco™; Thermofisher Scientific; Waltham, Mass.) and incubated with an antimicrobial agent for 1 min (n=2 wells per group). Controls included 1×PBS (diluent) and 1% TX-100 (cell permeabilizer). After exposure to various agents, the cells were washed three times with DMEM/F-12, incubated with 0.2% Trypan Blue for 5 min, and washed again three times with DMEM/F-12. The remaining media was aspirated and replaced with 1×PBS for imaging. Macro-images of the culture plate were taken with a smartphone camera (iPhone 7; Apple Inc.; Cupertino, Calif.), and 10× images were taken with an inverted microscope (Eclipse TS100; Nikon; Tokyo, Japan) attached to a digital camera (SPOT Insight Fire Wire; Diagnostic Instruments Inc.; Sterling Heights, Mich.). 3-6 images/well were obtained in clockwise direction from areas immediately adjacent to the center of the well, and without overlapping areas. Images were quantified in ImageJ Fiji software to determine the amount of cell uptake of Trypan Blue. Macros were created from the Color Threshoulder plugin (G. Landini) to batch process the images after color matching in Photoshop to reference images per treatment group. % Area of Trypan Blue staining per image was calculated as follows: (area of blue/area of all)×100%.

C. albicans (ATCC 24433) = assay: In vitro time kill test, yeast; format: cell-based, Candida albicans; conditions: for Reduction in viable colonies: FIG. 1A, full strength; for Ratio fungicidal activity/cytotoxicity: FIG. 3, # of log10 reduction / fold-change in Trypan Blue staining vs PBS (HCLE), 1 min contact, C. albicans
Method: as §1
The inoculum was prepared by adjustment of the optical density at 600 nm (OD600) to 1.0 (corresponding to approximately 1×10^6 CFU/mL), and dilution by 1:10 in the final solution. To confirm the starting inoculum size, yeasts were plated […] and colonies counted after growth for 24 hrs at 37° C. The test solutions were neutralized at each time point by ten-fold dilution in Dey-Engley neutralizing broth (Sigma-Aldrich; St Louis, Mo.), and serially track diluted (PMID: 9343684) on Sabouraud dextrose agar (six serial 1:10 dilutions, 0.01 mL each) in technical triplicate. Colonies were counted and recorded following aerobic incubation for 24 hrs at 37° C.
as §3

[4] = cited from earlier work
[5] = test system: A. fumigatus (ATCC MYA-3626); assay: In vitro time kill test, filamentous fungi; format: cell-based, Aspergillus fumigatus; conditions: for Ratio fungicidal activity/cytotoxicity: FIG. 3, # of log10 reduction / fold-change in Trypan Blue staining vs PBS (HCLE), 1 min contact, A. fumigatus
Method: as §1, §2, §3

[6] = FIG. 1B, tenth dilution, within 120 min
[7] = full strength (10,000 u/mL PMB, 40 g/mL BAK, 1 mg/mL TMP), within 120 min
[8] = FIG. 1C, without BAK, MOX 5 mg/mL, GAT 5 mg/mL, CHL 5 mg/mL, VAN 14 mg/mL, within 120 min

Molecule	Antifungal / fungicidal activity in vitro [2]	Fungicidal activity (words) (C. albicans (ATCC 24433); [6])	Fungicidal activity (words) (C. albicans (ATCC 24433); [7])	Efficacy/toxicity ratio, overall rank [2]	Fungicidal activity (words) (C. albicans (ATCC 24433); [8])	also measured
benzalkonium chloride [BAK]	moderate antifungal activity	fungicidal activity was not observed	comparable to the commercially prepared Polytrim®	–	–	Reduction in viable conidia ([1]; FIG. 2C, within 1 min of contact, Polytrim full strength, PI 0.5%, BAK 40 µg/mL, #3-IL 10 mM): 2 log10; Trypan Blue staining (% stained area per image) compared to control treatment TX-100 (1%) [3]: significantly lower amount of staining; Reduction in viable colonies (C. albicans (ATCC 24433); within 60 min): 2 log10; Reduction in viable colonies (C. albicans (ATCC 24433); within 120 min): 3 log10; Ratio fungicidal activity/cytotoxicity (C. albicans (ATCC 24433)): lowest ratio
povidone iodine [PI]	rapid and potent fungicidal activity	–	–	good efficacy/toxicity ratio; also recorded: ranks second after the novel IL	–	Tolerability on instillation into the eye ([4]; 1% concentration): well tolerated; Tolerability on instillation into the eye ([4]; 5% solution): acutely painful; Tolerability / ocular safety (words) ([4]; clinical or long-term topical ocular use): ocular inflammation from long-term use has occurred; Ratio fungicidal activity/cytotoxicity ([1]; FIG. 3, # of log10 reduction / fold-change in Trypan Blue staining vs PBS (HCLE), 1 min contact, F. solani): highest ratios; also recorded: rank highest for F. solani; Reduction in viable conidia ([5]; FIG. 2D, within 1 min, PI 0.5%, #3-IL 10 mM, CDG 0.05%): 2 log10; Ratio fungicidal activity/cytotoxicity [5]: highest ratios; Trypan Blue staining (% stained area per image) compared to control treatment TX-100 (1%) [3]: significantly lower amount of staining; Ratio fungicidal activity/cytotoxicity (C. albicans (ATCC 24433)): highest ratios; Reduction (kill of C. albicans) (C. albicans (ATCC 24433); PI 0.01-0.1%, within 120 min): < 1 log; Reduction (kill of C. albicans) (C. albicans (ATCC 24433); PI 0.5-1%, within 1 min): ≥ 3 log
COc1c(N2CCNC(C)C2)c(F)cc2c(=O)c(C(=O)O)cn(C3CC3)c12 (centres unmarked) [GAT, gatifloxacin]	no effect	–	–	–	fungicidal activity was not observed; also recorded: no effect	–
N=C(NCCCCCCNC(=N)NC(=N)Nc1ccc(Cl)cc1)NC(=N)Nc1ccc(Cl)cc1.O=C(O)[C@H](O)[C@@H](O)[C@H](O)[C@H](O)CO.O=C(O)[C@H](O)[C@@H](O)[C@H](O)[C@H](O)CO [CDG, chlorhexidine digluconate]	rapid and broad fungicidal activity; also recorded: effective	–	–	rank lower than PI	–	Ratio fungicidal activity/cytotoxicity [5]: lowest ratio; Cytotoxicity / toxicity [3]: high cytotoxicity; also recorded: too toxic; Contact time required for the same effect as PI and the novel IL (≥3 log10 reduction) (C. albicans (ATCC 24433); FIG. 2B, CDG 0.05%): 5 min
COc1cc(Cc2cnc(N)nc2N)cc(OC)c1OC [TMP, trimethoprim]	no effect; also recorded: ineffective	fungicidal activity was not observed	no effect	–	–	–
CCCCCCCCCCCCCC(=O)NCCCN(C)C [Aldox, myristamidopropyl dimethylamine]	rapid and broad fungicidal activity	–	–	rank lower than PI	–	Cytotoxicity / toxicity [3]: high cytotoxicity
CN[C@H](CC(C)C)C(=O)N[C@H]1C(=O)N[C@@H](CC(N)=O)C(=O)N[C@H]2C(=O)N[C@H]3C(=O)N[C@H](C(=O)N[C@H](C(=O)O)c4cc(O)cc(O)c4-c4cc3ccc4O)[C@H](O)c3ccc(c(Cl)c3)Oc3cc2cc(c3O[C@@H]2O[C@H](CO)[C@@H](O)[C@H](O)[C@H]2O[C@H]2C[C@](C)(N)[C@H](O)[C@H](C)O2)Oc2ccc(cc2Cl)[C@H]1O [VAN, vancomycin]	no effect; also recorded: ineffective	–	–	–	fungicidal activity was not observed; also recorded: no effect	–
O=C(N[C@H](CO)[C@H](O)c1ccc([N+](=O)[O-])cc1)C(Cl)Cl [CHL, chloramphenicol]	no effect; also recorded: ineffective	–	–	–	fungicidal activity was not observed; also recorded: no effect	–
polymyxin B sulfate [PMB]	moderate antifungal activity	fungicidal activity was not observed	comparable to the commercially prepared Polytrim®	–	–	Reduction in viable colonies (C. albicans (ATCC 24433); within 60 min): 2 log10; Reduction in viable colonies (C. albicans (ATCC 24433); within 120 min): 3 log10
COc1c(N2C[C@@H]3CCCN[C@@H]3C2)c(F)cc2c(=O)c(C(=O)O)cn(C3CC3)c12 [MOX, moxifloxacin]	no effect	–	–	–	no effect	–
